A short description of this test: Treatment of young bulls with GPP: live weight gain and food intake over 7 months. Format: in vivo. As to conditions: batch 5 (SRIF, MTP treated) versus batch 3 (SRIF, MDP treated); low, without any statistical significance. The procedure:
They were injected four times with 100 µg of GPP or a mixture of equivalent amounts of muramyl di-or triptide and SRIF. Samples were solubilized in physiological medium supplemented with 40 % WN polyethyleneglycol 6000. Intramuscular injections in the neck of animals were performed with 3 ml of the solution at days 0, 10, 30 and 60 of the 7 months period. During the seventh months treatment period the animals received a concentrate ad libitum. Each month, the animals were weighed and blood samples were taken for further analyses. The results concerning the parameters studied in this zootechnical experiment were summarized in the following.
Variance analysis of the body live weight gain has been performed on 27 animals alive on September 27, 1984 (16 controls and 11 treated animals). At that time, the difference of life weight gain between the 16 control animals and the 11 treated animals was 31.3 kg per animal, i. e. 11 % over controls.

As for “SRIF, MTP: Coupling of a muramyl tripeptide analog (N-acetyl muramyl-L-Ala-D-isoglutamyl-L-lysine OMe) with somatostatine (SRIF)”, the “deviation between the life gain of treated animals of batch 5 and batch 3” value worked out at 5.7 kg.

The values above are taken from patent publication EP0157753B1, “New somatostatin compounds, process for their synthesis, preparation for veterinary use containing said compound and process for the treatment of animals” (TECHLAND, Société Anonyme, priority 1984, dated 1987).
